Assay results reported in ChEMBL document CHEMBL4476866, “Pyrrol-1-yl benzoic acid derivatives useful as myc inhibitors” (2015).
Calls of active or inactive are those of the source. The calls are words filed in the database; no cut-off is given here.

How the values were obtained:
NCI-H2171 [1] = assay: Cytotoxic activity against human NCI-H2171 cells assessed as reduction in cell viability incubated for 3 days by ATPlite assay; format: functional, cell-based
MM1.S = assay: Cytotoxic activity against human MM1S cells assessed as reduction in cell viability incubated for 3 days by ATPlite assay; format: functional, cell-based
[2] = biological target: T1, Myc proto-oncogene protein (Homo sapiens, UniProt P01106); assay: Inhibition of human c-Myc assessed as reduction in c-Myc/Max/Ebox DNA complex formation using pre-formed complex of c-Myc and biotinylated DNA containing single Ebox-sequence followed by compound addition and further addition of his6-tagged c-Max and incubated for 2 hrs by AlphaScreen assay
[3] = biological target: T1, Myc proto-oncogene protein; assay: Inhibition of c-Myc in human NCI-H2171 cells assessed as reduction in c-Myc occupancy at Hnrnpa2b1 binding site at 100 uM incubated for 4 hrs by chromatin immunoprecipitation assay; format: cell-based
[4] = biological target: Protein max (Homo sapiens) (UniProt P61244); assay: Inhibition of Max in human NCI-H2171 cells assessed as reduction in Max occupancy at Npm1 binding site at 100 uM incubated for 4 hrs by chromatin immunoprecipitation assay; format: cell-based
[5] = biological target: T1, Myc proto-oncogene protein; assay: Inhibition of c-Myc in human NCI-H2171 cells assessed as reduction in c-Myc occupancy at Mat2a binding site at 100 uM incubated for 4 hrs by chromatin immunoprecipitation assay; format: cell-based
[6] = biological target: Protein max (Homo sapiens) (UniProt P61244); assay: Inhibition of Max in human NCI-H2171 cells assessed as reduction in Max occupancy at Mat2a binding site at 100 uM incubated for 4 hrs by chromatin immunoprecipitation assay; format: cell-based
NCI-H2171 [7] = assay: Induction of cell differentiation in human NCI-H2171 cells assessed as effect on CCl4 gene expression at 12.5 to 25 uM incubated for 4 days by qRT-PCR analysis; format: functional, cell-based
[8] = biological target: Protein max (Homo sapiens) (UniProt P61244); assay: Inhibition of Max in human NCI-H2171 cells assessed as reduction in Max occupancy at Rp123a binding site at 100 uM incubated for 4 hrs by chromatin immunoprecipitation assay; format: cell-based
NCI-H2171 [9] = assay: Induction of cell differentiation in human NCI-H2171 cells assessed as effect on CD11c expression at 12.5 to 25 uM incubated for 4 days by FACS analysis; format: functional, cell-based
NCI-H2171 [10] = assay: Induction of cell differentiation in human NCI-H2171 cells assessed as effect on CD11c gene expression at 12.5 to 25 uM incubated for 4 days by qRT-PCR analysis; format: functional, cell-based
[11] = biological target: T1, Myc proto-oncogene protein; assay: Inhibition of c-Myc in human NCI-H2171 cells assessed as reduction in c-Myc occupancy at Npm1 binding site at 100 uM incubated for 4 hrs by chromatin immunoprecipitation assay; format: cell-based
NCI-H2171 [12] = assay: Induction of cell differentiation in human NCI-H2171 cells assessed as effect on CD14 gene expression at 12.5 to 25 uM incubated for 4 days by qRT-PCR analysis; format: functional, cell-based
[13] = biological target: T1, Myc proto-oncogene protein; assay: Inhibition of human his6-tagged c-Myc assessed as reduction in c-Myc/Max/Ebox DNA complex formation by gel shift based orthogonal biochemical assay
[14] = biological target: T1, Myc proto-oncogene protein; assay: Inhibition of c-Myc in human NCI-H2171 cells assessed as reduction in c-Myc occupancy at Rp123a binding site at 100 uM incubated for 4 hrs by chromatin immunoprecipitation assay; format: cell-based
[15] = biological target: Protein max (Homo sapiens) (UniProt P61244); assay: Inhibition of Max in human NCI-H2171 cells assessed as reduction in Max occupancy at Hnrnpa2b1 binding site at 100 uM incubated for 4 hrs by chromatin immunoprecipitation assay; format: cell-based
NCI-H2171 [16] = assay: Effect on c-Myc protein levels in human NCI-H2171 cells at 100 uM incubated for 4 hrs by […]; format: functional, cell-based
[17] = Homo sapiens, NCI-H2171, 72 h, read-out: EC50
[18] = Homo sapiens, MM1.S, 72 h, read-out: EC50

Protein max (Homo sapiens), sequence (P61244 whole entry): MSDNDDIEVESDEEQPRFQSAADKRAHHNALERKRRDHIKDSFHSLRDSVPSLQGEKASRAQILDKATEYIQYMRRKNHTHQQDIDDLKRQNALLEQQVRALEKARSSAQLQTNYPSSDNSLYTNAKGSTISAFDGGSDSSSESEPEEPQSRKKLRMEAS
T1 sequence (P01106 whole entry): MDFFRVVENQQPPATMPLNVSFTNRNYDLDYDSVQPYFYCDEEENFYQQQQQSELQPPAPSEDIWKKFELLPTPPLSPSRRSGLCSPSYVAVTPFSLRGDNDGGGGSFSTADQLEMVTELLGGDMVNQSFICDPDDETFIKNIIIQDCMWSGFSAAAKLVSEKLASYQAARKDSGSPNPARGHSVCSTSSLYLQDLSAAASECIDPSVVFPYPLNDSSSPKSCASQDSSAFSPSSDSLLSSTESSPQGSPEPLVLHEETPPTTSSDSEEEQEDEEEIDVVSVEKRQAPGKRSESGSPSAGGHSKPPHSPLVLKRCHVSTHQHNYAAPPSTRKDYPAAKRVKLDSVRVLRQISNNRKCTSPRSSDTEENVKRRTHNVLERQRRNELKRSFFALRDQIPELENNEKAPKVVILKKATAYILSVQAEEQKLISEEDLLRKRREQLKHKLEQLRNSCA

SMILES | EC50 (NCI-H2171 [1]; nci-h2171) | EC50 (MM1.S; mm1.s) | further results
Cc1ccc(C)n1-c1cc(C(=O)N/N=C/c2ccc(-c3cncnc3)cc2)ccc1C(=O)O | Not Active | Not Active | –
Cc1ccc(C)n1-c1cc(C(=O)NCCc2cccc(C(=O)O)c2)ccc1C(=O)O | – | – | IC50 ([2]; read-out: IC50): 7.27 µM
Cc1cc(C(=O)N/N=C/c2ccccc2)c(C)n1-c1ccccc1C(=O)O | Not Active | Not Active | –
Cc1ccc(C)n1-c1cc(C(=O)N/N=C/c2ccc3nccnc3c2)ccc1C(=O)O | Not Active | Not Active | –
CC(=O)OCOC(=O)c1ccc(C(=O)N/N=C/c2ccc(O)c(O)c2O)cc1-n1c(C)ccc1C | – | – | EC50 (NCI-H2171 [1]; [17]): 2.23 µM; EC50 (MM1.S; [18]): 14.8 µM
Cc1ccc(C)n1-c1ccccc1C(=O)O | – | – | inhibition [3]: Active; inhibition [4]: inactive; inhibition [5]: Active; inhibition [6]: inactive; Activity (NCI-H2171 [7]): Active; inhibition [8]: inactive; Activity (NCI-H2171 [9]): Active; Activity (NCI-H2171 [10]): Active; inhibition [11]: Active; Activity (NCI-H2171 [12]): Active; inhibition [13]: Dose-dependent effect; inhibition [14]: Active; inhibition [15]: inactive; inhibition (NCI-H2171 [16]): inactive
Cc1ccc(C)n1-c1ccc(C(=O)O)c([N+](=O)[O-])c1 | Not Active | – | –
Cc1ccc(C)n1-c1c(C(=O)O)cccc1[N+](=O)[O-] | – | – | IC50 [2]: Not Active
Cc1ccc(C)n1-c1cc(C(=O)N/N=C/c2ccc(S(=O)(=O)O)o2)ccc1C(=O)O | – | Not Active | –
Cc1ccc(C)n1-c1cc(C(=O)N2CCOCC2)ccc1C(=O)O | – | Not Active | –
Cc1ccc(C)n1-c1cc(C(=O)N/N=C/c2cccc(C(=O)O)c2)ccc1C(=O)O | Not Active | Not Active | –
Cc1ccc(C)n1-c1cc(C(=O)N/N=C\c2cc(F)c(C(=O)O)c(F)c2)ccc1C(=O)O | Not Active | Not Active | –
CC(=O)Oc1cc(-n2c(C)ccc2C)ccc1C(=O)O | – | – | IC50 [2]: Not Active
Cc1ccc(C)n1-c1ccc(Cl)cc1C(=O)O | – | Not Active | –
Cc1ccc(C)n1-c1cc(C(=O)N/N=C\c2ccc(S(=O)(=O)O)cc2)ccc1C(=O)O | – | Not Active | –
Cc1ncc(CO)c(/C=N/NC(=O)c2ccc(C(=O)O)c(-n3c(C)ccc3C)c2)c1O | – | Not Active | –

SMILES | EC50 (NCI-H2171 [1]; nci-h2171) | EC50 (MM1.S; mm1.s) | further results
Cc1ccc(C)n1-c1cc(C(=O)N/N=C/c2ncc[nH]2)ccc1C(=O)O | – | Not Active | –
Cc1ccc(C)n1-c1cc(C(=O)N/N=C/c2ccc3cccnc3n2)ccc1C(=O)O | Not Active | – | –
CN1CCN(c2ccccc2C(=O)O)CC1 | – | Not Active | –
Cc1ccc(C)n1-c1cc(C(=O)N/N=C/c2cc(F)c(F)c(F)c2)ccc1C(=O)O | – | Not Active | –
COc1ccc(/C=N/NC(=O)c2ccc(C(=O)O)c(-n3c(C)ccc3C)c2)c(OC)c1 | – | Not Active | –
Cc1ccc(C)n1-c1cc(C(=O)N/N=C\c2ccc(C(=O)O)s2)ccc1C(=O)O | – | Not Active | –
Cc1ccc(C)n1-c1cc(C(=O)N/N=C/c2ccc(C(=O)O)o2)ccc1C(=O)O | Not Active | Not Active | –
COC(=O)c1ccc(-n2c(C)ccc2C)cc1O | Not Active | Not Active | –
Cc1ccc(C)n1-c1cc(C(=O)N/N=C/c2ccc3ccccc3n2)ccc1C(=O)O | Not Active | – | –
Cc1ccc(C)n1-c1ccc(C(=O)O)cc1O | – | Not Active | –
Cc1ccc(C)n1-c1cc(C(=O)N/N=C\c2cccc(C(=O)O)c2)ccc1C(=O)O | Not Active | Not Active | –
Cc1ccc(C)n1-c1cc(C(=O)N/N=C/c2c[nH]cn2)ccc1C(=O)O | Not Active | Not Active | –
Cc1ccc(C)n1-c1ccc(C(=O)O)c(O)c1 | – | – | EC50 (NCI-H2171 [1]; [17]): 189 to 517 µM; EC50 (MM1.S; [18]): 517 to 1440 µM
COC(=O)c1ccc(-n2cccc2)cc1O | – | – | IC50 [2]: Not Active
Cc1cc(C)c2c(=O)c(/C=N/NC(=O)c3ccc(C(=O)O)c(-n4c(C)ccc4C)c3)coc2c1 | Not Active | – | –
